{"source": "patent US9056887B2", "about": "“Minor groove binder phosphoramidites and methods of use” (Elitech Holding B.V., priority 2011, dated 2015)", "assay": "Solubility of MGB phosphoramidites in acetonitrile (oligonucleotide synthesis solvent)", "format": "physicochemical", "settings": "standard solvent for on-line oligosynthesis", "protocol": "Activated pentafluorophenyl ester 1 of the DPI3 type of minor groove bindinding ligands was prepared as previously described (U.S. Pat. No. 7,381,818) and coupled with four secondary amine-containing terminal functions generatin trimers 2(a-d), (Reaction Scheme 1, FIG. 1) suitable for following protection and phosphoramidite preparation. The use of secondary amino function prevents the possibility of the formation of acyclic side-product (Basel and Hassner 2000) during the following protection step. The trimers 2(a-d) were reacted with diethyl pyrocarbonate in the presence of DMAP to protect the three heteroaromatic indolamino groups and afford carbomates 3(a-d). Methyl and tert-butyl dicarbonates were also tested and produced the respective carbamates with good yields. […] Therefore, the ethylcarbamate protection was concluded to be optimal allowing fast deprotection and providing the required solubility in acetonitrile. […]\nTest octathymidylates were synthesized on an ABI 3900 DNA synthesizer using thymidine-5′- or 3′-phosphoramidites and a DMT-O-hexylsuccinate solid support. […] Crude reaction mixtures were concentrated in a SpeedVac evaporator and analyzed by mass spectroscopy to confirm molecular weight and determine purity of crude MGB-oligonucleotide conjugates. […]", "data": [{"compound": "CCOC(=O)n1c(-c2ccc(OCCCCCCOP(OCCC#N)N(C(C)C)C(C)C)cc2)nc2cc(-c3nc4cc(-c5nc6cc(N7CCN(C)CC7)ccc6n5C(=O)OCC)ccc4n3C(=O)OCC)ccc21", "note": "(stereo not shown) [Phosphoramidite 25]", "values": [{"measurement": "solubility in acetonitrile", "result": "only sparingly soluble"}]}]}
